Legend:
[1] = tested on: Human bladder cancer (T-24) cell line; assay: MTT cell viability assay, T-24 cells; assay type: cell-based; conditions: bladder cancer cell line T-24, treatment for 24 h (table title), means of three experiments, read-out: IC50 (μM* ± SD) T-24
Protocol: (§1) Human bladder cancer (T-24) and human prostate carcinoma (PC-3) cell lines were obtained from American Type Culture Collection (ATCC; Manassas, VA USA). Cells were maintained in Dulbecco’s modified Eagle medium with 10% foetal bovine serum at 37 °C and 5% CO2. All the operations were carried out under strict aseptic conditions. The culture medium was removed to a centrifuge tube containing 9.0 ml complete culture medium and spanned at approximately 125 × g for 5 to 7 min. The cell layer was rinsed with 0.25% (w/v) trypsin- […] EDTA solution by which all traces of serum-containing inhibitor were removed. Trypsin EDTA solution 2.0 to 3.0 ml was added to a flask and cells were monitored under an inverted microscope until the cell layer was dispersed (usually within 5–15 min). A complete growth medium was added (6.0–8.0 ml), and cells were aspirated by gentle pipetting. The cell pellet was suspended with the recommended complete medium and dispensed into a 75 cm^2 culture flask. The culture vessel containing the complete growth medium was placed in the incubator for 24 h to at 37 °C. The cells were treated with different concentrations (0.39, 1.60, 6.25, 25, and 100 μg/ml) of each of the test compounds or doxorubicin, […], then the plates were examined under the inverted microscope and finally the MTT assay was carried out.
(§2) Anti-cancer activity of the newly synthesised compounds was evaluated in vitro against both T-24 and PC-3 cell lines according to the MTT method. Cells were seeded into 96-well plates (flat bottom) at a density of 10 000 cells/well for 24 h. The vial of MTT to be used was reconstituted with 3 ml of medium or balanced salt solution without phenol red and serum. then, a reconstituted MTT vial was added in an amount equal to 10% of the culture medium volume. Cultures were incubated for 2–4 h depending on the cell type and maximum cell density and removed from the incubator and the formazan crystals were dissolved via the addition of an amount of MTT solubilisation solution (M-8910) equal to the original culture medium volume. ROBONIK P2000 spectrophotometer at a wavelength of 570 nm was used to measure the colour intensity spectrophotometrically. The survival curve of both T-24 and PC-3 cells was obtained by plotting the percentage of surviving cells against the drug after each compound. The IC50 value for each test compound and the reference drug doxorubicin was calculated.
(§3) In this study, all the newly synthesised CP derivatives were subjected to anticancer activity evaluation against bladder (T-24) and prostate cancer (PC-3) cell lines. The compounds were evaluated for their activity using 5 doses determinations (100 μg/ml, 25 μg/ml, 6.25 μg/ml, 1.60 μg/ml, and 0.39 μg/ml). Their half-maximal inhibitory concentration (IC50) values were measured. Doxorubicin was chosen as a reference anticancer drug[65].

[2] = tested on: human prostate carcinoma (PC-3) cell line; assay: MTT cell viability assay, PC-3 cells; assay type: cell-based; conditions: prostate cancer cell line PC-3, treatment for 24 h (table title), means of three experiments, read-out: IC50 (μM* ± SD) PC-3
Protocol: as §1, §2, §3

IC50 [1] [µM]	IC50 [2] [µM]	melting point [°C]	SMILES
88 ± 4.75	8.81 ± 0.44	166 to 168	CC(=NNC(=O)CN1CCN(c2cc3c(cc2F)c(=O)c(C(=O)O)cn3C2CC2)CC1)c1ccccc1O [Compound 7d, 1-Cyclopropyl-6-fluoro-7-(4-(2-(2-(1-(2-hydroxyphenyl)ethylidene)hydrazinyl)-2-oxoethyl)piperazin-1-yl)-4-oxo-1,4-dihydroquinoline-3-carboxylic acid]
134 ± 7.23	4.85 ± 0.27	238 to 240	COc1ccc(NC(=S)NNC(=O)CN2CCN(c3cc4c(cc3F)c(=O)c(C(=O)O)cn4C3CC3)CC2)cc1 [Compound 9c, 1-Cyclopropyl-6-fluoro-7-(4-(2-(2-((4-methoxyphenyl)carbamo-thioyl)hydrazinyl)-2-oxoethyl)piperazin-1-yl)-4-oxo-1,4-dihydroquinoline-3-carboxylic acid]
25 ± 0.2	50.5 ± 10.4	245 to 247	CC(=NNC(=O)CN1CCN(c2cc3c(cc2F)c(=O)c(C(=O)O)cn3C2CC2)CC1)c1cccs1 [Compound 7e, 1-Cyclopropyl-6-fluoro-4-oxo-7-(4-(2-oxo-2-(2-(1-(thiophen-2-yl)ethylidene)hydrazinyl)ethyl)piperazin-1-yl)-1,4-dihydroquinoline-3-carboxylic acid]
25.6 ± 0.71	32.8 ± 0.86	173 to 175	CC(=NNC(=O)CN1CCN(c2cc3c(cc2F)c(=O)c(C(=O)O)cn3C2CC2)CC1)c1ccc(N)cc1 [Compound 7c, 7-(4-(2-(2-(1-(4-Aminophenyl)ethylidene)hydrazinyl)-2-oxoethyl)-piperazin-1-yl)-1-cyclopropyl-6-fluoro-4-oxo-1,4-dihydroquinoline-3-carboxylic acid]
124 ± 6.7	136 ± 6.94	286 to 288	CC(=NNC(=O)CN1CCN(c2cc3c(cc2F)c(=O)c(C(=O)O)cn3C2CC2)CC1)c1ccc(Cl)s1 [Compound 7f, 7-(4-(2-(2-(1-(5-Chlorothiophen-2-yl)ethylidene)hydrazinyl)-2-oxoethyl)piperazin-1-yl)-1-cyclopropyl-6-fluoro-4-oxo-1,4-dihydro-quinoline-3-carboxylic acid]
17.2 ± 0.93	3.38 ± 0.18	210 to 215	O=C(CN1CCN(c2cc3c(cc2F)c(=O)c(C(=O)O)cn3C2CC2)CC1)NNCC(=O)c1cccc(Br)c1 [Compound 10b, 7-(4-(2-(2-(2-(3-Bromophenyl)-2-oxoethyl)hydrazinyl)-2-oxo-ethyl)piperazin-1-yl)-1-cyclopropyl-6-fluoro-4-oxo-1,4-dihydroquinoline-3-carboxylic acid]
34.5 ± 1.86	30.5 ± 1.56	188 to 200	NC(=S)NNC(=O)CN1CCN(c2cc3c(cc2F)c(=O)c(C(=O)O)cn3C2CC2)CC1 [Compound 13, 7-(4-(2-(2-carbamothioylhydrazinyl)-2-oxoethyl)piperazin-1-yl)-1-cyclopropyl-6-fluoro-4-oxo-1,4-dihydroquinoline-3-carboxylic acid]

The next lines start with the molecule.

SMILES	IC50 [1] [µM]	IC50 [2] [µM]	melting point [°C]
O=C(CN1CCN(c2cc3c(cc2F)c(=O)c(C(=O)O)cn3C2CC2)CC1)NN=C1NC(=O)CS1 [Compound 14, 1-cyclopropyl-6-fluoro-4-oxo-7-(4-(2-oxo-2-(2-(4-oxothiazolidin-2-ylidene)hydrazinyl)ethyl)piperazin-1-yl)-1,4-dihydroquinoline-3-carboxylic acid]	19.5 ± 0.58	6.49 ± 0.24	240 to 242
O=C(CN1CCN(c2cc3c(cc2F)c(=O)c(C(=O)O)cn3C2CC2)CC1)NN1C(=O)c2ccccc2C1=O [Compound 12, 1-cyclopropyl-7-(4-(2-((1,3-dioxoisoindolin-2-yl)amino)-2-oxoethyl)piperazin-1-yl)-6-fluoro-4-oxo-1,4-dihydroquinoline-3-carboxylic acid]	47 ± 1.09	126 ± 6.39	190 to 192
Cc1cc(C)n(C(=O)CN2CCN(c3cc4c(cc3F)c(=O)c(C(=O)O)cn4C3CC3)CC2)n1 [Compound 5, 1-cyclopropyl-7-(4-(2-(3,5-dimethyl-1H-pyrazol-1-yl)-2-oxoethyl)piperazin-1-yl)-6-fluoro-4-oxo-1,4-dihydro-quinoline-3-carboxylic acid]	25.9 ± 1.39	24.9 ± 1.26	–
O=C(CN1CCN(c2cc3c(cc2F)c(=O)c(C(=O)O)cn3C2CC2)CC1)NNCC(=O)c1ccccc1 [Compound 10a, 1-Cyclopropyl-6-fluoro-4-oxo-7-(4-(2-oxo-2-(2-(2-oxo-2-phenyl-ethyl)hydrazinyl)ethyl)piperazin-1-yl)-1,4-dihydroquinoline-3-carboxylic acid]	45.4 ± 2.45	74.3 ± 3.78	183 to 185
CC1=NN(C(=O)CN2CCN(c3cc4c(cc3F)c(=O)c(C(=O)O)cn4C3CC3)CC2)C(=O)C1 [Compound 3, 1-cyclopropyl-6-fluoro-7-(4-(2-(3-methyl-5-oxo-4,5-dihydro-1H-pyrazol-1-yl)-2-oxoethyl)piperazin-1-yl)-4-oxo-1,4-dihydroquinoline-3-carboxylic acid]	37.3 ± 2.02	98.2 ± 5	188 to 190
Cc1cccc(Cl)c1NC(=O)NNC(=O)CN1CCN(c2cc3c(cc2F)c(=O)c(C(=O)O)cn3C2CC2)CC1 [Compound 9b, 7-(4-(2-(2-((2-Chloro-6-methylphenyl)carbamoyl)hydrazinyl)-2-oxoethyl)piperazin-1-yl)-1-cyclopropyl-6-fluoro-4-oxo-1,4-dihydro-quinoline-3-carboxylic acid]	28.6 ± 1.54	19.3 ± 0.98	285 to 287
O=C(CN1CCN(c2cc3c(cc2F)c(=O)c(C(=O)O)cn3C2CC2)CC1)NN1C(=O)CCC1=O [Compound 11, 1-cyclopropyl-7-(4-(2-((2,5-dioxopyrrolidin-1-yl)amino)-2-oxoethyl)piperazin-1-yl)-6-fluoro-4-oxo-1,4-dihydroquinoline-3-carboxylic acid]	68.5 ± 3.69	82.2 ± 4.18	184 to 186
O=C(CN1CCN(c2cc3c(cc2F)c(=O)c(C(=O)O)cn3C2CC2)CC1)NN=C1C(=O)Nc2cccc(Br)c21 [Compound 8b, 7-(4-(2-(2-(4-Bromo-2-oxoindolin-3-ylidene)hydrazinyl)-2-oxoethyl)piperazin-1-yl)-1-cyclopropyl-6-fluoro-4-oxo-1,4-dihydro-quinoline-3-carboxylic acid]	336 ± 18.1	41.1 ± 2.09	263 to 265
N=C1CC(=O)NN1C(=O)CN1CCN(c2cc3c(cc2F)c(=O)c(C(=O)O)cn3C2CC2)CC1 [Compound 4, 1-cyclopropyl-6-fluoro-7-(4-(2-(5-imino-3-oxopyrazolidin-1-yl)-2-oxoethyl)piperazin-1-yl)-4-oxo-1,4-dihydroquinoline-3-carboxylic acid]	25.5 ± 1.38	29.9 ± 1.53	181 to 183
O=C(CN1CCN(c2cc3c(cc2F)c(=O)c(C(=O)O)cn3C2CC2)CC1)NN=c1[nH]c(-c2ccccc2)cs1 [Compound 15, 1-cyclopropyl-6-fluoro-4-oxo-7-(4-(2-oxo-2-(2-(4-phenylthiazol-2(3H)-ylidene)hydrazinyl)ethyl)piperazin-1-yl)-1,4-dihydroquinoline-3-carboxylic acid]	15.9 ± 0.87	7.54 ± 0.39	256 to 258
